The record followed here is patent publication US8871753B2, “Macrocyclic compounds and their use as kinase inhibitors” (Incyte Corporation, priority 2008, dated 2014).

Common to all, as to type: biochemical
Assay [1] addresses T1, human JAK1 (a.a. 837-1142) (Homo sapiens, UniProt P23458).
T1 construct: human JAK1 (a.a. 837-1142); His tag (N); made in house; host or cells: insect cells (baculovirus)
Nature of the assay: In vitro JAK kinase assay (HTRF, phosphorylation of a biotinylated peptide), JAK1. The note with it: read-out: JAK1 IC50. In a few lines:
(§1)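 Kinase reactions ran at room temperature for 1 h with ATP matched per isoform (JAK1 90 μM, JAK2 30 μM, JAK3 3 μM). After an EDTA stop, the phosphorylated biotin-peptide was read by HTRF using Eu-Py20 and SA-APC after 40 min binding.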
In general terms: In TR-FRET formats the signal depends on donor and acceptor labels being close together.

Assay [2] deals with T2, human JAK2 (a.a. 828-1132) (Homo sapiens, UniProt O60674).
T2 construct: JAK2 (a.a. 828-1132); His tag (N); made in house; host or cells: insect cells (baculovirus)
Nature of the assay: In vitro JAK kinase assay (HTRF, phosphorylation of a biotinylated peptide), JAK2. The procedure, abridged:
as §1

The target in assay [3] is T3, human JAK3 (a.a. 781-1124) (Homo sapiens, UniProt P52333).
T3 construct: JAK3 (a.a. 781-1124); His tag (N); made in house; host or cells: insect cells (baculovirus)
Nature of the assay: In vitro JAK kinase assay (HTRF, phosphorylation of a biotinylated peptide), JAK3. The procedure, abridged:
as §1

For assay [4], the target named is TYK2 (Homo sapiens, UniProt P29597). Nature of the assay: TYK2 kinase inhibition (Table A1).
Assay [5] has as its target T4, Recombinant Human Anaplastic Lymphoma Kinase (Homo sapiens, UniProt Q9UM73).
T4 construct: purchased Invitrogen, Carlsbad, Calif
Put plainly: ALK HTRF kinase assay. The procedure, abridged:
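Biotinylated peptide substrate, recombinant human ALK; detection via europium-chelate antibody to phosphotyrosine paired with streptavidin-APC. Potency expressed as IC50 from four-parameter curve fitting.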

The mark [6] stands for this setting: Table B1, cells without percent sign.
Where [7] appears, read: method AA1 (90 μM ATP) or AA2 (1000 μM ATP), not stated per value.
[8] abbreviates: method AA1 (30 μM ATP) or AA2 (1000 μM ATP), not stated per value.
Where [9] appears, read: method AA1 (3 μM ATP) or AA2 (1000 μM ATP), not stated per value.
The mark [10] stands for this setting: compound at 500 nM or 1 mM, 90 μM ATP.
Setting [11] is: compound at a concentration of 500 nM or 1 mM (not specified), cells shown as percentage.

Where a name gives a salt, the structure may show the parent alone. Read-outs that look alike come from different tables or passages of the source.

T1 sequence (P23458 849-1154): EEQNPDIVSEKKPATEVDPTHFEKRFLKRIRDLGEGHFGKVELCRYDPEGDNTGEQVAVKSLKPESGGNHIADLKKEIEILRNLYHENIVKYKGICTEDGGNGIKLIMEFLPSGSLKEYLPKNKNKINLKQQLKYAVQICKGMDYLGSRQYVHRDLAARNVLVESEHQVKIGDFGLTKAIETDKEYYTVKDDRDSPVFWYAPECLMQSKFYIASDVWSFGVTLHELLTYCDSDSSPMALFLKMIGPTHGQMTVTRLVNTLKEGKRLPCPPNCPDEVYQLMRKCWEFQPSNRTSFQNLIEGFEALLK
Chain of TYK2 (P29597 whole entry): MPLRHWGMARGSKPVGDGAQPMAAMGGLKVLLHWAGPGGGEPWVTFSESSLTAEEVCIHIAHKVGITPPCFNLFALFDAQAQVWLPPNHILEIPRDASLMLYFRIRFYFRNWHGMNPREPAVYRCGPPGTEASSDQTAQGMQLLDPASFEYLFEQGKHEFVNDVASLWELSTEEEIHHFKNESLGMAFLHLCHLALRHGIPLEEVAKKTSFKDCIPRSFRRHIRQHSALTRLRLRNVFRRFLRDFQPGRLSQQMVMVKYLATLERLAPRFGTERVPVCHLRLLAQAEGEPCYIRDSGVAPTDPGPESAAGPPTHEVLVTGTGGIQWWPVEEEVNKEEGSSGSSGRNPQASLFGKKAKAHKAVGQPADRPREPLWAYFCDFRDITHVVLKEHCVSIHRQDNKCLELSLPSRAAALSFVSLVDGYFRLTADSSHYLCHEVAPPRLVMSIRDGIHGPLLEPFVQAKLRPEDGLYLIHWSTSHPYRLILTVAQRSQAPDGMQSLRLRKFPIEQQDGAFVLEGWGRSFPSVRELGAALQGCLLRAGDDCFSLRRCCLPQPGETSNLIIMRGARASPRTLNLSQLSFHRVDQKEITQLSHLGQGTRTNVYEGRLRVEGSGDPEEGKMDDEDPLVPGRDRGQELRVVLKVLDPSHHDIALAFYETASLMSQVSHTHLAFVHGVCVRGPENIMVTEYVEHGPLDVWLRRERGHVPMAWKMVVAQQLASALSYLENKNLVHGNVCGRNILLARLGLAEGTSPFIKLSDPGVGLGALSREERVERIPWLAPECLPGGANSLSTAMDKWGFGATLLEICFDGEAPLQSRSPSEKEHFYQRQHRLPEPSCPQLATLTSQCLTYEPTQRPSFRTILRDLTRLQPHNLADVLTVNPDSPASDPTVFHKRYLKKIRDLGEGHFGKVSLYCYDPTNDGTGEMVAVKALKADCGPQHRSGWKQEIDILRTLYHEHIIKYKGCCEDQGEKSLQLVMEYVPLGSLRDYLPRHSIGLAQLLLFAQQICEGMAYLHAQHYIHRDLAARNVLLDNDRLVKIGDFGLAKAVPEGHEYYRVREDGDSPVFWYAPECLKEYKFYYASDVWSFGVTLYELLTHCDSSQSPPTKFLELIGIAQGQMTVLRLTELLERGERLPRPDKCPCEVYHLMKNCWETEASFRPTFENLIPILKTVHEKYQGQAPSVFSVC
T3 sequence (P52333 781-1124): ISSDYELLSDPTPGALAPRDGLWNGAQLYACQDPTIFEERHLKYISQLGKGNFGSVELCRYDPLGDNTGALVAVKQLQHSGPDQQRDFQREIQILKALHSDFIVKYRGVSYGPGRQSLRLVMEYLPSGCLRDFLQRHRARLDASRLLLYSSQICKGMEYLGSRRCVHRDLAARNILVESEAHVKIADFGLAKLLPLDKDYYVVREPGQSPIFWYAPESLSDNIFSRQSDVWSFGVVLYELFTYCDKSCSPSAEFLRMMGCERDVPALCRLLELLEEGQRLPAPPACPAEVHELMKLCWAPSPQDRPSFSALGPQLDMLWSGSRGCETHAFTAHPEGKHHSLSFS
T2 sequence (O60674 828-1132): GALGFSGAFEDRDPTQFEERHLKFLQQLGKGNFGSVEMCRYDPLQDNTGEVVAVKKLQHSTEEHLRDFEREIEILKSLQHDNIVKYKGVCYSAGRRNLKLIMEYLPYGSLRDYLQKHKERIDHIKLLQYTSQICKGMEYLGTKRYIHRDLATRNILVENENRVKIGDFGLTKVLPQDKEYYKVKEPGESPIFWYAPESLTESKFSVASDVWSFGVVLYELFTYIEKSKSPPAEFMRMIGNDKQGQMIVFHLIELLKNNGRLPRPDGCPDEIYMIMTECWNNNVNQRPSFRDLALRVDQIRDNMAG
T4 sequence (Q9UM73 19-1620): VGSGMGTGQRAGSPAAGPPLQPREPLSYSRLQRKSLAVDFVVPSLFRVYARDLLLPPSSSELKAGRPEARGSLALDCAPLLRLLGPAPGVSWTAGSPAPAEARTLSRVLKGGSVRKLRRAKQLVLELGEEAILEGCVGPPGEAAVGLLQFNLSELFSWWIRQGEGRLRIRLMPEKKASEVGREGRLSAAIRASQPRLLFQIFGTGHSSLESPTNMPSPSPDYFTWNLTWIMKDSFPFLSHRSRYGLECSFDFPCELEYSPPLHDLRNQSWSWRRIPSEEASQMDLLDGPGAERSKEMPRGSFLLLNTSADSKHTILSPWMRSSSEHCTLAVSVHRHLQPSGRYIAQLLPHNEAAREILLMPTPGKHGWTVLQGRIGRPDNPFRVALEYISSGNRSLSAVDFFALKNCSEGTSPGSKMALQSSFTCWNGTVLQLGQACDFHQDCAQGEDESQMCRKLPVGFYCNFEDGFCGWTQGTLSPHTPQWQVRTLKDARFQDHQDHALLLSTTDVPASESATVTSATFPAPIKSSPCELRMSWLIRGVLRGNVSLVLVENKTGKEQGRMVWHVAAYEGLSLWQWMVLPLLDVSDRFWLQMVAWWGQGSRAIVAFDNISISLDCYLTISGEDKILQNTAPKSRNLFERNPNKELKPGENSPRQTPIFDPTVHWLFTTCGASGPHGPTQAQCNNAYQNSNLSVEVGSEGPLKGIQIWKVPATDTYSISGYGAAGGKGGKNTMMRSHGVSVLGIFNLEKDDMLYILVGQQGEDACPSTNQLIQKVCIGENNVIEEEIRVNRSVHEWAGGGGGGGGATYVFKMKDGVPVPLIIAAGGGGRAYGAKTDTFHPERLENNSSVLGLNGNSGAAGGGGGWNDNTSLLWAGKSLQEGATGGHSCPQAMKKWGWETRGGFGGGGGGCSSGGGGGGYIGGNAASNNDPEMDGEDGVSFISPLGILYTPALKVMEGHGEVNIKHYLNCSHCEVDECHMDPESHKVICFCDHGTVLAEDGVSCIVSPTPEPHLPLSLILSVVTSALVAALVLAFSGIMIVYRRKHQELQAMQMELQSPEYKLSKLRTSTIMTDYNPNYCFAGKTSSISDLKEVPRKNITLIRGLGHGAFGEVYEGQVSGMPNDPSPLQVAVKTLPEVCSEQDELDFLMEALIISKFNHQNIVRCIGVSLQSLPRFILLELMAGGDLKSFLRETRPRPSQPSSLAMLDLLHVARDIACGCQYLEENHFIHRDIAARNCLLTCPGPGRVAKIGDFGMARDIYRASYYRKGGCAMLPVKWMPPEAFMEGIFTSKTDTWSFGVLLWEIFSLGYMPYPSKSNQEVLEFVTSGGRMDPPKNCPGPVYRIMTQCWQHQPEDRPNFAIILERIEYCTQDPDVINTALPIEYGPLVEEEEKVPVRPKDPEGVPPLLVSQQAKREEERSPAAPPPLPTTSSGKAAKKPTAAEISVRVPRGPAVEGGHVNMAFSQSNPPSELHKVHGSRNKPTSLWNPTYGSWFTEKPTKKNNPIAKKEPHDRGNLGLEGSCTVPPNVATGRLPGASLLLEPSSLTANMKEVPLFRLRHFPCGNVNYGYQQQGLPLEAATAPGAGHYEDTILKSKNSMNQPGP

For the compound `O=C(Nc1ccc2cc1CCc1cccc(c1)Nc1ncc(Cl)c(n1)N2)c1nccs1` [Example B52, N-[6-Chloro-2,4,8,22-tetraazatetracyclo[14.3.1.1(3,7).1(9,13)]docosa-1(20), 3(22),4,6,9(21),10,12,16,18-nonaen-12-yl]-1,3-thiazole-2-carboxamide trifluoroacetate], the IC50 was 3.7 nM in assay [1] (Table B1); 1.8 nM in assay [2] (Table B1); 17 nM in assay [3] (Table B1); 6.3 nM in assay [4] (Table B1); 910 nM in assay [5] (setting [6]).

`O=C(CC1CCN(C(=O)c2cccnc2)CC1)Nc1ccc2cc1CCc1cncc(c1)Nc1ncc(Cl)c(n1)N2` [Example A188, N-[6-Chloro-2,4,8,18,22-pentaazatetracyclo[14.3.1.1(3,7).1(9,13)]docosa-1(20),3(22),4,6,9(21),10,12,16,18-nonaen-12-yl]-2-[1-(pyridin-3-ylcarbonyl)piperidin-4-yl]acetamide tris(trifluoroacetate)]: the half-inhibitory concentration (IC50) in assay [1] (setting [7]) was 34 nM; in assay [2] (setting [8]), more than 200 nM; in assay [3] (setting [9]) it was more than 200 nM; in assay [4], more than 200 nM. The “ALK % of inhibition at a concentration of 500 nM or 1 mM” value (shortened to “ALK % of inhibition”) in assay [5] (setting [10]) is given as 26%.

For `O=C(Nc1nc(C(=O)O)cs1)Nc1ccc2cc1CCc1cccc(c1)Nc1ncc(Cl)c(n1)N2` [Example B250, 2-[({[6-Chloro-2,4,8,22-tetraazatetracyclo[14.3.1.1(3,7).1(9,13)]docosa-1(20),3(22),4,6,9(21),10,12,16,18-nonaen-12-yl]amino}carbonyl)amino]-1,3-thiazole-4-carboxylic acid trifluoroacetate], the IC50 in assay [1] (Table B1) came out at 28 nM; in assay [2] (Table B1), 28 nM; in assay [3] (Table B1), 6.3 nM; in assay [4] (Table B1), 5.5 nM. Moreover, the “ALK % of inhibition” value in assay [5] (setting [11]) came to 66%.

On to `O=C(Nc1ccc2cc1CCc1cccc(c1)Nc1ncc(Cl)c(n1)N2)NC1CC1` [Example B240, N-[6-Chloro-2,4,8,22-tetraazatetracyclo[14.3.1.1(3,7).1(9,13)]docosa-1(20),3(22),4,6,9(21),10,12,16,18-nonaen-12-yl]-N′-cyclopropylurea trifluoroacetate], for which the IC50 in assay [1] (Table B1) stood at 1.5 nM; in assay [2] (Table B1), 0.74 nM; in assay [3] (Table B1), 10 nM; in assay [4] (Table B1) it was 4 nM. For the same compound, the “ALK % of inhibition” value in assay [5] (setting [11]) is 15%.

In the case of `O=C(Nc1ccc2cc1CCc1cncc(c1)Nc1ncc(Cl)c(n1)N2)N1CCC(c2ccccc2)C1` (stereo not drawn) [Example B312, N-[6-Chloro-2,4,8,18,22-pentaazatetracyclo[14.3.1.1(3,7).1(9,13)]docosa-1(20),3(22),4,6,9(21),10,12,16,18-nonaen-12-yl]-3-phenylpyrrolidine-1-carboxamide bis(trifluoroacetate)], the IC50 in assay [1] (Table B1) was 5 nM; in assay [2] (Table B1), 70 nM; in assay [3] (Table B1), more than 400 nM; in assay [4] (Table B1), 42 nM. For the same compound, in assay [5] (percentage inhibition of the example compound at a concentration of 500 nM or 1 mM (not specified which)), the “ALK % of inhibition” value is on record as 40%.

With `O=C(Nc1ccc(Cl)nc1)Nc1ccc2cc1CCc1cccc(c1)Nc1ncc(Cl)c(n1)N2` [Example B121, N-(6-Chloropyridin-3-yl)-N′-[6-chloro-2,4,8,22-tetraazatetracyclo[14.3.1.1(3,7).1(9,13)]docosa-1(20),3(22),4,6,9(21),10,12,16,18-nonaen-12-yl]urea bis(trifluoroacetate)], the IC50 in assay [1] (Table B1) turned out to be 2.2 nM; in assay [2] (Table B1) it was 7.9 nM; in assay [3] (Table B1) it was 50 nM; in assay [4] (Table B1), 19 nM. Further, the “ALK % of inhibition” value in assay [5] (setting [11]) was 39%.

In the case of `N#Cc1ccc(N2CCC(CC(=O)Nc3ccc4cc3CCc3cncc(c3)Nc3ncc(Cl)c(n3)N4)CC2)cc1` [Example A221, N-[6-Chloro-2,4,8,18,22-pentaazatetracyclo[14.3.1.1(3,7).1(9,13)]docosa-1(20),3(22),4,6,9(21),10,12,16,18-nonaen-12-yl]-2-[1-(4-cyanophenyl)piperidin-4-yl]acetamide tris(trifluoroacetate)], the IC50 in assay [1] (setting [7]) is 44 nM; in assay [2] (setting [8]), more than 200 nM; in assay [3] (setting [9]), more than 200 nM; in assay [4], more than 200 nM. Besides, in assay [5] (setting [10]), the “ALK % of inhibition” value was 22%.

For the compound `O=C(Nc1ccc2cc1CCc1cccc(c1)Nc1ncc(Cl)c(n1)N2)c1ccccn1` [Example B37, N-[6-Chloro-2,4,8,22-tetraazatetracyclo[14.3.1.1(3,7).1(9,13)]docosa-1(20), 3(22),4,6,9(21),10,12,16,18-nonaen-12-yl]pyridine-2-carboxamide bis(trifluoroacetate)], the IC50 in assay [1] (Table B1) was 7.6 nM; in assay [2] (Table B1), 8.3 nM; in assay [3] (Table B1), 87 nM; in assay [4] (Table B1), 21 nM; in assay [5] (setting [6]) it was more than 10000 nM.

Consider `COC(=O)c1cc2cc(c1)Nc1nc(ncc1Cl)Nc1cccc(c1)CC2` [Example B5, Methyl 6-chloro-2,4,8,22-tetraazatetracyclo[14.3.1.1(3,7).1(9,13)]docosa-1(20),3(22),4,6,9(21),10,12,16,18-nonaene-11-carboxylate trifluoroacetate], for which the IC50 in assay [1] (Table B1) was 107 nM; in assay [2] (Table B1), 44 nM; in assay [3] (Table B1) it was 83 nM; in assay [4] (Table B1), 165 nM; in assay [5] (setting [6]) it was more than 1000 nM.

Turning to `COCCNC(=O)Nc1ccc2cc1CCc1cccc(c1)Nc1ncc(Cl)c(n1)N2` [Example B243, N-[6-Chloro-2,4,8,22-tetraazatetracyclo[14.3.1.1(3,7).1(9,13)]docosa-1(20),3(22),4,6,9(21),10,12,16,18-nonaen-12-yl]-N′-(2-methoxyethyl)urea trifluoroacetate], the IC50 in assay [1] (Table B1) was determined as 0.92 nM; in assay [2] (Table B1), 1.5 nM; in assay [3] (Table B1), 16 nM; in assay [4] (Table B1), 3.1 nM. The “ALK % of inhibition” value in assay [5] (setting [11]) is listed as 14%.

Take `O=C(CC1CCN(C(=O)c2ccccc2)CC1)Nc1ccc2cc1CCc1cncc(c1)Nc1ncc(Cl)c(n1)N2` [Example A192, 2-(1-Benzoylpiperidin-4-yl)-N-[6-chloro-2,4,8,18,22-pentaazatetracyclo[14.3.1.1(3,7).1(9,13)]docosa-1(20),3(22),4,6,9(21),10,12,16,18-nonaen-12-yl]acetamide bis(trifluoroacetate)]: the IC50 in assay [1] (setting [7]) was 21 nM; in assay [2] (setting [8]), more than 200 nM; in assay [3] (setting [9]), more than 200 nM; in assay [4] it was more than 200 nM. For the same compound, the “ALK % of inhibition” value in assay [5] (setting [10]) is 31%.

With `Cc1cc(C(=O)Nc2cc3cc(c2)Nc2nc(ncc2Cl)Nc2cccc(c2)CC3)no1` [Example B205, N-[6-Chloro-2,4,8,22-tetraazatetracyclo[14.3.1.1(3,7).1(9,13)]docosa-1(20),3(22),4,6,9(21),10,12,16,18-nonaen-11-yl]-5-methylisoxazole-3-carboxamide trifluoroacetate], the IC50 was 188 nM in assay [1] (Table B1); 146 nM in assay [2] (Table B1); 509 nM in assay [3] (Table B1); more than 1000 nM in assay [4] (Table B1); more than 10000 nM in assay [5] (setting [6]).

As for `O=C(NCc1ccccc1)N1CCN(c2ccc(-c3cc4cc(c3)Nc3ncc(Cl)c(n3)Nc3cccc(c3)OCC4)cn2)CC1` [Example D48, bis(trifluoroacetate)], the 50% inhibitory concentration (IC50) in assay [1] (Table D1) is 4.9 nM; in assay [2] (Table D1) it was 2.1 nM; in assay [3] (Table D1), 27 nM; in assay [4] (Table D1) it was 8.3 nM; in assay [5] (Table D1, 90 μM ATP), more than 1000 nM.

As for `O=C(CC1CCN(C(=O)c2cccnc2)CC1)Nc1ccc2cc1CCc1cccc(c1)Nc1ncc(Cl)c(n1)N2` [Example A184, N-[6-Chloro-2,4,8,22-tetraazatetracyclo[14.3.1.1(3,7).1(9,13)]docosa-1(20),3(22),4,6,9(21),10,12,16,18-nonaen-12-yl]-2-[1-(pyridin-3-ylcarbonyl)piperidin-4-yl]acetamide bis(trifluoroacetate)], the IC50 was 43 nM in assay [1] (setting [7]), 79 nM in assay [2] (setting [8]), more than 200 nM in assay [3] (setting [9]) and more than 200 nM in assay [4]. The “ALK % of inhibition” value in assay [5] (setting [10]) is on record as 29%.

Turning to `Clc1cccc(N2CCN(Cc3cc4cc(c3)Nc3nc(ncc3Cl)Nc3cccc(c3)CC4)CC2)n1` [Example B217, 6-Chloro-11-{[4-(6-chloropyridin-2-yl)piperazin-1-yl]methyl}-2,4,8,22-tetraazatetracyclo[14.3.1.1(3,7).1(9,13)]docosa-1(20),3(22),4,6,9(21),10,12,16,18-nonaene tris(trifluoroacetate)], the IC50 in assay [1] (Table B1) was 225 nM; in assay [2] (Table B1), 71 nM; in assay [3] (Table B1), 199 nM; in assay [4] (Table B1), more than 1000 nM; in assay [5] (setting [6]), more than 10000 nM.

A word on the IC50: it is the point on the concentration scale where inhibition reaches its midpoint.
